Data on one compound can be found in BindingDB's records for patent US12545673 (TSD Life Sciences, 2026).

The target of the experiment is Mitogen-activated protein kinase kinase kinase 9 (Homo sapiens, UniProt P80192). Put plainly: Evaluation of Inhibitory Activity of Enzyme Units.
Mitogen-activated protein kinase kinase kinase 9, sequence (P80192 whole entry): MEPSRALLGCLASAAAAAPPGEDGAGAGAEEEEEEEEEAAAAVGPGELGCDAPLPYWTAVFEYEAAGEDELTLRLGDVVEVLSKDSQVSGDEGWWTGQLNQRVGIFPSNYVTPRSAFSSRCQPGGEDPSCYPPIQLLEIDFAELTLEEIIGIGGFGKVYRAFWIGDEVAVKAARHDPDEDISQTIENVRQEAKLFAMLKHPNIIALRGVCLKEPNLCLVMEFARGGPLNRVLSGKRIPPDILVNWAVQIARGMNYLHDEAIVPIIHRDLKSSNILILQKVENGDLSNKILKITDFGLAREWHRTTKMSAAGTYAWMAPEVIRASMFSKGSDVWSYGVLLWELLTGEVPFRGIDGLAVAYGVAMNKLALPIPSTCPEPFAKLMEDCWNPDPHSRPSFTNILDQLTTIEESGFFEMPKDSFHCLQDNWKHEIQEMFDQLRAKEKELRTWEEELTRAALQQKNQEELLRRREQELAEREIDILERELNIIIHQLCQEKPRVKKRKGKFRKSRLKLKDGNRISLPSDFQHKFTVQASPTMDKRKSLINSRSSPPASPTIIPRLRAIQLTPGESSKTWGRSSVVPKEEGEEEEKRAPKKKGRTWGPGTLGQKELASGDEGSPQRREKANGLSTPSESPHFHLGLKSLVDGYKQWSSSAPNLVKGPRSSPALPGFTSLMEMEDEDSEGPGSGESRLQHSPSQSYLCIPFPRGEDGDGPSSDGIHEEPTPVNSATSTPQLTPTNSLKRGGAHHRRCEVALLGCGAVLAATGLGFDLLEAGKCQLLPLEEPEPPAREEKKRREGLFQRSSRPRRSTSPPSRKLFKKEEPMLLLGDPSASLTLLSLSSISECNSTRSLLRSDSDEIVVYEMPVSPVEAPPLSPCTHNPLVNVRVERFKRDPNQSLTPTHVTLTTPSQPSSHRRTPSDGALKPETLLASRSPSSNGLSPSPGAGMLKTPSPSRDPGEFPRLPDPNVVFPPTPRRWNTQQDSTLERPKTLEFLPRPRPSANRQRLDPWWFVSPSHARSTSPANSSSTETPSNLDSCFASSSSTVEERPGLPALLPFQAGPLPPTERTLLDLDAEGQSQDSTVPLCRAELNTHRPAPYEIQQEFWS

Regarding `CCS(=O)(=O)N1CC[C@H](Nc2c(Br)cnc3nc(-c4cc(C)n(-c5ccc(OCCN6CCOCC6)cc5)c4C)[nH]c23)C1` [US12545673, Example 4], the IC50 (usually the midpoint of a concentration-inhibition curve) worked out at 56 nM.
